Measurements from EPA's ToxValDB 9.5.
Values joined by “and” are separate entries in the source; they are usually repeats but may differ in a detail not shown here. Equal entries are not always repeated.

Assays:
[1] = system: Rattus norvegicus; details: oral, gavage; for LD50: acute
[2] = system: Rattus norvegicus; details: oral
[3] = system: Rattus norvegicus
[4] = acute, duration: 4 hours, inhalation, M, Bone Marrow: Bone Marrow Histopathology + Spleen: Spleen Histopathology + Whole Body: Clinical Signs
[5] = reproduction developmental, duration: 9 days, inhalation, F, generation: P0, P0: Whole Body: Maternal Body Weight, Initial
[6] = reproduction developmental, duration: 9 days, inhalation, M/F, generation: F1, F1: Vertebra: Thoracic Centrum, Dipartite Ossification
[7] = reproduction developmental, duration: 14 days, oral, gavage, F, Crj:CD, generation: P0, P0: Uterus: >=6 Days of Diestrus + P0: Uterus: Estrous Cycle, Length + P0: Whole Body: Delivery Index + P0: Whole Body: Length of Gestation…
[8] = reproduction developmental, duration: 14 days, oral, gavage, M/F, Crj:CD, generation: F1, F1: Whole Body: Live Birth Index + F1: Whole Body: Live Pups Born + F1: Whole Body: Survival + F1: Whole Body: Viability Index
[9] = reproduction developmental, duration: 42 days, oral, gavage, M, Crj:CD, generation: P0, P0: Whole Body: Percent Mating
[10] = short-term, duration: 14 days, oral, gavage, F, Crj:CD, Liver: Cholesterol (CHOL), Total
[11] = subchronic, duration: 42 days, oral, gavage, M, Crj:CD, Adrenal: Adrenal Gland Weight, Absolute + Liver: Aspartate Aminotransferase (AST) + Spleen: Spleen Weight, Relative
[12] = subchronic, gavage, M, Sprague-Dawley, Clinical Observation: Salivation + Body Weight Changes: Body weight gain decrease + Food Consumption: decrease + Water Consumption: increase…
[13] = subchronic, gavage, M, Sprague-Dawley, Clinical Observation: Salivation + Hematology: NEUT increase + Histopathology: Forestomach-Erosion Forestomach-Cellular infiltration, …
[14] = subchronic, gavage, M, Sprague-Dawley, Urinalysis: Round epithelial cell increase + Hematology: RBC decrease, HGB decrease, HCT decrease, RET increase, R + Blood Chemistry: a2-…

## Cc1ccc(Cl)cc1 [4-Chlorotoluene]
[1]; Sprague-Dawley
  LD50: 2350 mg/kg and 1900 mg/kg
[2]; short-term, duration: 29 days, gavage, M/F, Wistar, Deaths + Clinical Observation: Rough fur Reduced condition Difficulties in breathing Distended abdomen Salivation + Body Weight Changes: …
  NOAEL: 200 mg/kg-day
[2]; subchronic, duration: 90 days, gavage, M/F, Sprague-Dawley, Deaths + Clinical Observation: Languid behavior Prostration Sensitivity to touch Tremor Epistaxis Wheezing Dyspnea + Body Weight Changes: …
  NOAEL: 200 mg/kg-day

## O=C1N(CO)C(O)C(O)N1CO (stereo not given) [Dimethyloldihydroxyethyleneurea]
[1]; developmental, duration: 10 days, Wistar
  NOAEL: 640 mg/kg-day
[1]; reproduction developmental, duration: 14 days, Fischer 344
  NOAEL: 4000 mg/kg-day
[2]; subchronic, duration: 90 days, gavage, M/F, Fischer 344, Clinical Observation: Yellow discoloration, abdominal/anogenital region Soft stool Hypoactivity Grasping reflex decrease, Hypothermic …
  NOAEL: 3000 mg/kg-day

## OC(C(F)(F)F)C(F)(F)F [2H-Perfluoro-2-propanol]
[3]; [4]
  LOAEL: 5500 mg/m3
  NOAEL: 1370 mg/m3 and 1380 mg/m3
[3]; acute, duration: 4 hours, inhalation, M, Brain: Brain Histopathology + Brain: Brain Pathology + Duodenum: Duodenum Histopathology + Heart: Heart Histopathology + Kidney: Kidney …
  LOAEL: 1370 mg/m3 and 1380 mg/m3
[3]; developmental, duration: 9 days, inhalation, M/F, generation: F1, F1: Rib: Rib, Wavy + F1: Skin: Petechial Hemorrhages + F1: Skin: Subcutaneous Hematoma, Small + F1: Skull: Hyoid Body, Unossified + F1: …
  NOAEL: 1380 mg/m3 and 1370 mg/m3
[3]; reproduction developmental, duration: 9 days, inhalation, F, generation: P0, P0: Ovary: Corpora Lutea + P0: Uterus: Mean Implantations/Litter + P0: Uterus: Resorptions, Early + P0: Uterus: Resorptions, Late + P0: …
  NOAEL: 1380 mg/m3 and 1370 mg/m3
[3]; [5]
  LOAEL: 1380 mg/m3 and 1370 mg/m3
  NOAEL: 207 mg/m3 and 206 mg/m3
[3]; reproduction developmental, duration: 9 days, inhalation, M/F, generation: F1, F1: Kidney: Hydronephrosis + F1: Rib: 14th Rudimentary Rib
  LOAEL: 207 mg/m3 and 206 mg/m3
[3]; [6]
  LOAEL: 1380 mg/m3 and 1370 mg/m3
  NOAEL: 207 mg/m3 and 206 mg/m3
[3]; reproduction developmental, duration: 14 days, oral, gavage, F, Crj:CD, generation: F1, F1: Whole Body: Pup Weight Relative to Litter
  LOAEL: 300 mg/kg-day
[3]; reproduction developmental, duration: 14 days, oral, gavage, F, Crj:CD, generation: P0, P0: Ovary: Corpora Lutea + P0: Uterus: Estrous Cycle, Irregular + P0: Uterus: Estrous Stages/ 21 Days + P0: Uterus: Implantation + P0: …
  NOAEL: 300 mg/kg-day
[3]; [7]
  LOAEL: 300 mg/kg-day
  NOAEL: 60 mg/kg-day
[3]; [8]
  LOAEL: 300 mg/kg-day
  NOAEL: 60 mg/kg-day
[3]; reproduction developmental, duration: 14 days, oral, gavage, M/F, Crj:CD, generation: F1, F1: Whole Body: Male Pups per Pups Sexed + F1: Whole Body: Male Pups per Pups Sexed, Live Offspring
  NOAEL: 300 mg/kg-day
[3]; reproduction developmental, duration: 14 days, oral, gavage, M, Crj:CD, generation: F1, F1: Whole Body: Pup Weight Relative to Litter
  LOAEL: 300 mg/kg-day
[3]; reproduction developmental, duration: 42 days, oral, gavage, M, Crj:CD, generation: P0, P0: Whole Body: Days of Cohabitation + P0: Whole Body: Fertility Index
  NOAEL: 300 mg/kg-day
[3]; [9]
  LOAEL: 300 mg/kg-day
  NOAEL: 60 mg/kg-day
[3]; short-term, duration: 14 days, oral, gavage, F, Crj:CD, Adrenal: Adrenal Gland Histopathology + Adrenal: Adrenal Gland Weight, Absolute + Adrenal: Adrenal Gland Weight, Relative + Basophils + …
  NOAEL: 300 mg/kg-day
[3]; short-term, duration: 14 days, oral, gavage, F, Crj:CD, Calcium (CA) + Central Nervous System: CNS Depression + Liver: Hepatocellular Hypertrophy + Liver: Liver Weight, Relative, Recovery + …
  LOAEL: 300 mg/kg-day
[3]; short-term, duration: 14 days, oral, gavage, F, Crj:CD, Calcium (CA) + Central Nervous System: CNS Depression + Liver: Hepatocellular Hypertrophy + Peripheral Nervous System: Aerial Righting …
  NOAEL: 60 mg/kg-day
[3]; [10]
  LOAEL: 60 mg/kg-day
  NOAEL: 10 mg/kg-day
[3]; subchronic, duration: 42 days, oral, gavage, M, Crj:CD, Adrenal: Adrenal Gland Histopathology + Adrenal: Adrenal Gland Weight, Absolute, Recovery + Adrenal: Adrenal Gland Weight, Relative, …
  NOAEL: 300 mg/kg-day
[3]; [11]
  LOAEL: 60 mg/kg-day
  NOAEL: 10 mg/kg-day
[3]; subchronic, duration: 42 days, oral, gavage, M, Crj:CD, Adrenal: Adrenal Gland Weight, Relative
  LOAEL: 10 mg/kg-day
[3]; subchronic, duration: 42 days, oral, gavage, M, Crj:CD, Blood: Platelet Count (PLT) + Blood: Reticulocytes + Brain: Brain Weight, Absolute + Brain: Brain Weight, Absolute, Recovery + Central …
  LOAEL: 300 mg/kg-day
[3]; subchronic, duration: 42 days, oral, gavage, M, Crj:CD, Blood: Platelet Count (PLT) + Blood: Reticulocytes + Brain: Brain Weight, Absolute + Central Nervous System: CNS Depression + Kidney: Urea …
  NOAEL: 60 mg/kg-day
[2]; subchronic, gavage, M, Sprague-Dawley, Clinical Observation: Prone position Lateral position Locomotor activity decrease + Functional Observational Battery: Prone position Lateral…
  NOEL: 10 mg/kg-day

## Cc1cc(S(=O)(=O)[O-])c(N=Nc2c([O-])c(C(=O)O)cc3ccccc23)cc1Cl.[Ca+2] [C.I. Pigment Red 48, calcium salt (1:1)]
[1]
  LD50: ≥ 5000 mg/kg
[2]; subchronic, gavage, M, Sprague-Dawley, Functional Observational Battery: Grip strength of hind limbs + Relative Organ Weight: Kidneys increase + Histopathology: Kidneys/ proximal …
  NOEL: 200 mg/kg-day

## CC(C)(C)c1cc(O)ccc1O [tert-Butylhydroquinone]
[2]; subchronic, duration: 13 weeks, diet, F, Fischer 344, Clinical Observation: Hair discoloration + Body Weight Changes: decrease + Food Consumption: decrease + Blood Chemistry: Bile acid increase…
  NOEL: 200 mg/kg-day
[2]; subchronic, duration: 13 weeks, diet, M/F, Fischer 344, Clinical Observation: Hair discoloration + Body Weight Changes: decrease + Food Consumption: decrease + Blood Chemistry: Bile acid increase…
  NOEL: < 240 mg/kg-day

## CCCCCC1C(=O)CCC1CC(=O)OC (stereo not given) [Methyl dihydrojasmonate]
[2]; [12]
  NOAEL: 100 mg/kg-day
  NOEL: 100 mg/kg-day

## C1CCC2=NCCCN2CC1 [1,8-Diazabicyclo[5.4.0]undec-7-ene]
[2]; [13]
  NOAEL: 30 mg/kg-day
  NOEL: 10 mg/kg-day

## Sc1ccc2ccccc2c1 [2-Naphthalenethiol]
[2]; short-term, duration: 28 days, gavage, M/F, Sprague-Dawley, Functional Observational Battery: Landing foot splay decrease + Food Consumption: decrease + Water Consumption: increase + Urinalysis: …
  NOEL: 8 mg/kg-day

## C=Cc1ccc(OC(C)(C)C)cc1 [4-tert-Butoxystyrene]
[2]; short-term, duration: 28 days, gavage, M/F, Deaths + Clinical Observation: Salivation + Body Weight Changes: Body weight gain decrease + Food Consumption: decrease + Urinalysis: Urine…
  NOEL: 20 mg/kg-day

## NC(=O)N/N=C/c1ccc([N+](=O)[O-])o1 [Nitrofurazone]
[2]; subchronic, duration: 13 weeks, diet, M/F, Fischer 344, Body Weight Changes: decrease + Food Consumption: decrease + Absolute Organ Weight: Liver increase + Relative Organ Weight: Liver increase…
  NOEL: < 14.4 mg/kg-day

## CC(O)CCl (stereo not given) [1-Chloro-2-propanol]
[2]; chronic, duration: 14 weeks, water, M/F, Fischer 344, Body Weight Changes: decrease + Water Consumption: decrease + Urinalysis: Urine volume decrease, Specific gravity increase, Total protein …
  NOEL: < 7.36 mg/kg-day

## CCN1CCc2c3n(c4ccccc24)C(C(=O)OC)=CCC31.Cl (stereo not given)
[2]; chronic, duration: 91 days, gavage, M/F, CD, Clinical Observation: Salivation Greenish urine + Urinalysis: Greenish, or Dark green urine Quarry placoid crystal Urinary cast Volume …
  NOEL: 50 mg/kg-day

## [Cu+2].[O-]n1ccccc1=S.[O-]n1ccccc1=S [Copper Omadine]
[2]; short-term, duration: 28 days, gavage, M/F, Deaths + Clinical Observation: Ataxic gait Dragging of hindlimbs Emaciation + Body Weight Changes: decrease + Food Consumption: decrease + …
  NOEL: 2.5 mg/kg-day

## CCOCCOCCOC [Ethane, 1-ethoxy-2-(2-methoxyethoxy)-]
[2]; subchronic, duration: 42 days, gavage, M, CD(SD), Clinical Observation: Decrease in locomotor activity Salivation (transient) + Food Consumption: decrease + Urinalysis: K decrease, Cl …
  NOAEL: 62.5 mg/kg-day

## CCCC[N+](CCCC)(CCCC)CCCC.[Br-] [Tetrabutylammonium bromide]
[2]; subchronic, gavage, M/F, Sprague-Dawley, Deaths + Clinical Observation: Reddish urine + Body Weight Changes: Gain decrease + Food Consumption: increase + Urinalysis: Light brown …
  NOEL: 60 mg/kg-day

## O=C(OOC(=O)c1ccccc1)c1ccccc1 [Benzoyl peroxide]
[2]; short-term, duration: 28 days, gavage, M, Sprague-Dawley, Absolute Organ Weight: Testes decrease + Relative Organ Weight: Testes decrease, Epididymis decrease + Histopathology: Testes: Degeneration
  NOAEL: 500 mg/kg-day

## CCc1ccc(C)nc1 [5-Ethyl-2-methylpyridine]
[2]; short-term, duration: 28 days, gavage, M/F, Sprague-Dawley, Body Weight Changes: decrease + Food Consumption: decrease + Blood Chemistry: BUN increase, CRE increase, AST increase + Relative Organ …
  NOAEL: 30 mg/kg-day

## ClCc1ccc(Cl)c(Cl)c1 [Benzene, 1,2-dichloro-4-(chloromethyl)-]
[2]; short-term, duration: 28 days, gavage, M/F, CD(SD), Deaths + Urinalysis: Volume, urinary cast increase, Epithelial cell increase + Absolute Organ Weight: Kidney increase, Liver increase + …
  NOEL: < 10 mg/kg-day

## O=P([O-])(O)CN(CCN(CCN(CP(=O)(O)O)CP(=O)(O)O)CP(=O)(O)O)CP(=O)(O)O.[Na+]
[2]; subchronic, duration: 90 days, diet, M/F, Wistar, Hematology: RBC increase, MCV decrease, MCH decrease, HGB decrease, MCHC decrease + Absolute Organ Weight: Liver decrease
  NOAEL: 96 mg/kg-day

## C=CCCCCCCCCCCCC [1-Tetradecene]
[2]; subchronic, gavage, M, Sprague-Dawley, Absolute Organ Weight: Liver increase + Relative Organ Weight: Liver increase + Histopathology: Liver-Hepatocyte cytoplasmic vacuolation
  NOAEL: 100 mg/kg-day

## CC(=O)N(C)c1ccccc1 [Acetamide, N-methyl-N-phenyl-]
[2]; short-term, duration: 28 days, gavage, M/F, Sprague-Dawley, Deaths + Clinical Observation: Clonic convulsion Cyanosis Salivation Rearing decrease + Body Weight Changes: decrease + Food Consumption: …
  NOEL: < 20 mg/kg-day

## C=CC/C=C/C/C=C/C/C=C/C [1-Propene, tetramer]
[2]; [14]
  NOAEL: 40 mg/kg-day
  NOEL: < 40 mg/kg-day

## CO[Si](C)(OC)OC [Trimethoxymethylsilane]
[2]; short-term, duration: 28 days, gavage, M, Sprague-Dawley, Clinical Observation: Inactivity Salivation + Body Weight Changes: Body weight gain decrease + Food Consumption: decrease + Hematology: PT …
  NOAEL: 50 mg/kg-day

## Nc1ccc2cc(S(=O)(=O)CCO)ccc2c1 [Ethanol, 2-[(6-amino-2-naphthalenyl)sulfonyl]-]
[2]; short-term, duration: 28 days, gavage, M/F, Body Weight Changes: Weight gain decrease + Urinalysis: pH decrease(slight) + Hematology: RBC decrease, RET increase, PT increase + Absolute…
  NOEL: 15 mg/kg-day
